The values below come from patent US20070078097A1, “Method for treating intermittent claudication comprising the administration of propionyl L-carnitine and a concomitant physical training” (priority 2005, published 2007).

Assay [1] deals with patients with Intermittent Claudication (Leriche-Fontaine Class II). The assay can be described thus: Maximum walking distance on treadmill, three phase III placebo-controlled studies. The class given is in vivo, human. The settings on record: for MWD at Month 6/Endpoint, Mean / MWD at Month 6/Endpoint, Median: PLC 2 g/day oral, 3 km/h; for MWD Change from Baseline to Endpoint, Mean / MWD Change from Baseline to Endpoint, Median: PLC 2 g/day. From the text:
(§1) Three parallel, randomized, double-blind, placebo-controlled, phase III studies in patients with Intermittent Claudication (Leriche-Fontaine Class II) represent the basis for the above considerations. They are study ST 261 201 90 INT (hereinafter referred to as the European study); study ST 94 301 (hereinafter referred to as the Hiatt study); and ST 93 301, hereinafter referred to as the Porter study).
(§2) Diagnosis and main criteria for inclusion for these studies were similar, as follows: intermittent claudication of ascertained vascular origin; age between 40 and 80 years; lesions at iliac-femoral and/or femoro-popliteal level confirmed by angiographic or Doppler examination; no pain at rest (Leriche-Fontaine Class III) or ulcerative lesions (Leriche-Fontaine Class IV); history of claudication >1 year; dietary regime and alcohol intake stable during the study. All patients were strongly encouraged to stop smoking and exercise actively. The latter recommendation was to be achieved either through a supervised, vascular rehabilitation-based program, or via an unsupervised, home-based program.
A total of 316 subjects (PLC, 153 subjects; placebo, 163 subjects) were randomized in the primary intention-to-treat population (ITT) of the European study, which was conducted in 39 centers in West and East Europe, and tested PLC (2 g/day) for 12 months vs. placebo. Patients had to have a maximum walking distance (MWD) at baseline between 50-400 m. and variability over the three treadmill tests carried-out at baseline of ≦25%.
A total of 161 subjects (PLC, 85 subjects; placebo, 76 subjects) were randomized in the ITT population of the Hiatt study, which was performed in 10 centers in the USA and Russia, and tested PLC (2 g/day for 6 months) versus placebo.
A total of 155 subjects (ITT population: PLC, 80 subjects; placebo, 75 subjects) were randomized in the 6-month, Porter study, which was conducted in 16 US centers and tested PLC 2 g/day vs. placebo as its primary target population. All randomized patients had baseline MWD between 50-250 m and variability ≦25%.
These phase III studies evaluated physical performance as their primary efficacy parameter. This was assessed by the maximum walking capacity of patients on a treadmill: the European study used a fixed treadmill with 7% slope and 3 km/hour speed; the Hiatt study used a graded treadmill, starting at 0% slope and increasing by 2% every 2 minutes, with a 2 mph speed; the Porter study used a fixed treadmill with 12% slope and 2 mph speed.
Given the non-normality of response distributions for MWD, the comparison between PLC and placebo-treated patients was based on a non-parametric test, i.e., the Cochrane-Mantel-Haenszel test on the within-center, standardized mid-ranks (MODRIDITS) of changes over baseline, stratified by site.

The test system is the same in assay [2]. The assay can be described thus: Quality of life questionnaires (PAD-related, SF-36, WIQ), O'Brien global score. The class given is in vivo, human.
Text: as §1, §2
The above studies also assessed quality of life (QoL) as their main secondary efficacy parameter: the European study used the ad-hoc validated PAD-related questionnaire, while the Hiatt and Porter studies used both the very well-known and validated Health Status Survey-Short Form 36 (SF-36) and the Walking Impairment Questionnaire (WIQ).
Similar results were obtained also when considering QoL. Since several questionnaires were used in each study, a global summary statistic was used in order to deal with this issue, as well as with the multiplicity of domains present in each of these questionnaires, i.e., the O'Brien test.

In assay [3] the test system is patients with claudication. The settings on record: orally given; randomised placebo-controlled trials of the literature; cited from earlier work.
The test system of assay [4] is platelet. The settings on record: literature (Pignatelli et al. 2003); cited from earlier work.
The test system of assay [5] is claudicant patients. The settings on record: six patients; intravenous 3 g bolus followed by infusion of 2 mg/Kg/man for 30 minutes; Brevetti et al. 1988; cited from earlier work.
[6] abbreviates: ITT with concomitant physical exercise, N = 54, P-value vs placebo 0.000.
[7] abbreviates: ITT without concomitant physical exercise, N = 264, P-value vs placebo 0.777.
[8] abbreviates: ITT with concomitant physical exercise, PLC N = 54, P-value vs placebo <0.001.
[9] abbreviates: ITT without concomitant physical exercise, PLC N = 261, P-value vs placebo 0.142.

For `CCC(=O)O[C@H](CC(=O)[O-])C[N+](C)(C)C` [PLC, propionyl L-carnitine], the “MWD at Month 6/Endpoint, Mean” value in assay [1] (ITT with concomitant physical exercise, N = 54, converted to treadmill 7% slope, baseline mean 249.7) came to 410.8 m; in assay [1] (ITT without concomitant physical exercise, N = 264, treadmill 7% slope, baseline mean 205.6), 325.3 m. Further, the “MWD at Month 6/Endpoint, Median” value in assay [1] (ITT with concomitant physical exercise, N = 54, treadmill 7% slope, baseline median 239.2) turned out to be 400.9 m; in assay [1] (ITT without concomitant physical exercise, N = 264, treadmill 7% slope, baseline median 171.7) it was 225.5 m. Further, the “MWD Change from Baseline to Endpoint, Mean” value in assay [1] (setting [6]) was determined as 161.1 m; in assay [1] (setting [7]), 119.7 m. Also, the “MWD Change from Baseline to Endpoint, Median” value is on record as 154.8 m in assay [1] (setting [6]) and 36.6 m in assay [1] (setting [7]). In assay [1] (overall ITT subjects of the three studies, p=0.08), the “net PLC advantage over placebo in exercise performance at endpoint” value stood at 18.2 m. Further, the “Change in O'Brien scores for QoL questionnaires, Baseline to Endpoint, Mean” value in assay [2] (setting [8]) is 0.56; in assay [2] (setting [9]), 0.51. The “Change in O'Brien scores for QoL questionnaires, Baseline to Endpoint, Median” value in assay [2] (setting [8]) is listed as 0.54; in assay [2] (setting [9]), 0.50. Also, in assay [2] (overall ITT subjects, p<0.001), the “QoL at endpoint compared to the placebo group” value is recorded as “significant improvement”. Moreover, in assay [3], the “walking distance in patients with claudication” value was “significant increase”. In addition, the “arachidonic acid accumulation in the phospholipids of platelet membrane” value in assay [4] is recorded as “inhibits”. The “platelet thromboxane A2 and O2 formation” value in assay [4] is “reduction”.
For the compound `C[N+](C)(C)C[C@H](O)CC(=O)[O-]` [levocarnitine, L-carnitine], the “increase of venous lactate induced by walking test” value in assay [5] is recorded as “lowered”. In addition, in assay [3], the “walking distance in patients with claudication” value is “significant increase”.
